In patent US6150412A, “Catechol derivatives” (Orion-yhtyma Oy, priority 1995, dated 2000) one finds IC50 and concentration data, which are given here for seven compounds.

One data set addresses T1, S-COMT enzyme (Homo sapiens, UniProt P21964).
T1 sequence (P21964 1-221 isoform P21964-2): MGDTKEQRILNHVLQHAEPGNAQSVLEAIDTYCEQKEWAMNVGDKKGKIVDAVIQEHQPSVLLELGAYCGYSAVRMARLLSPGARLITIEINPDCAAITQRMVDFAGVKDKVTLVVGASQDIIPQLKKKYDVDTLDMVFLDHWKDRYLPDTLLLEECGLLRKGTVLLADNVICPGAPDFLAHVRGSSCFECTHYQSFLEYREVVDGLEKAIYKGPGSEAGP
The data set is described as follows: Determination of IC50 values, COMT inhibition (dopamine methylation, HPLC). The format is biochemical. Particulars: S-COMT enzyme (about 30 nM), 0.05 mM AdoMet, 3 mM dopamine, 5 min preincubation, 15 min at 37° C., pH 7.4. Here is the method:
The studied inhibitors were first dissolved into 0.1 M NaOH solution and then diluted with distilled water to 0.5 mM inhibitor concentration. From this stock solution the inhibitor concentrations were adjusted by diluting the desired amounts of stock solution with 0.05 M phosphate buffer, pH 7.4. The studied sample solutions were prepared into the Eppendorf tubes. The final concentrations of the studied samples were; -100 mM phosphate buffer, 5 mM MgCl2, 0.05 mM AdoMet, S-COMT enzyme (about 30 nM) and the inhibitor.
The samples were mixed with Vortex, and incubated for 5 min at 37° C. The reactions were initiated with 3 mM dopamine and carried on for 15 min at 37° C. The reactions were stopped with 4 M perchloric acid and stabilized afterwards for 10 min in ice bath. The sample solutions were centrifuged for 10 min, and the methylated products, 3-methyldopamineand 4-methyidopamine, were analysed with HPLC.

A short description of data set [1]: Determination of plasma concentrations after oral dosing. The following applies: rat, male Wistar rats, orally dosed 10 mg/kg, read-out: Plasma c; for concentration at 0.5 h: t = 30 min; for concentration at 5 h: t = 5 h. It counts as in vivo. Here is the method:
Male Wistar rats (220-280 g) were orally dosed (10 mg/kg) with test compounds. Control animals received the vehicle only. Blood samples were drawn from the tail artery 0.5 and 5 hours after the treatment and collected into pre-cooled Li-heparinized tubes. The plasma was separated by centrifugation (11000 g, 5 min) and stored at -80° C. until analysis.
The analytes were extracted from 200 μl of acidified plasma (100 μl of 1 M HCI) with 5 ml of ethyl acetate. The organic phase (4 ml) was evaporated to dryness under a stream of nitrogen at 40° C. The residue was redissolved in 200 μl of dimethylsulphoxide and 30 μl of it was analyzed by HPLC with amperometric detection. The electrode potential was +700 mV.

Each structure is given as a SMILES string. Where two headings read alike, the source gives them in different places. A value given as a limit tells only on which side of the number the result lay.

As for `N#Cc1cc(O)c(O)c(C#N)c1CCC(=O)O` [Example 17, 3-(2,6-DICYANO-3,4-DIHYDROXYPHENYL)PROPANOIC ACID], the IC50 – broadly, the concentration at which inhibition is half-maximal – at S-COMT enzyme stood at 20 nM. That is a double-digit nanomolar value. Turning to `O=C(O)CCCCc1c([N+](=O)[O-])cc(O)c(O)c1[N+](=O)[O-]` [Example 13, 5-(3,4-DIHYDROXY-2,6-DINITROPHENYL)-PENTANOIC ACID], 20 nM corresponded to half-maximal inhibition against S-COMT enzyme (IC50). This lies in the double-digit nanomolar range.

For `N#Cc1cc(O)c(O)c(C#N)c1CCCCC(=O)O` [Example 16, 5-(3,4-DIHYDROXY-2,6-DICYANOPHENYL)PENTANOIC ACID], at S-COMT enzyme, the IC50 is 15 nM. Also, in data set [1] (plasma), the concentration at 0.5 h turned out to be 2000 ng/mL and the concentration at 5 h was determined as 150 ng/mL. As for `O=Cc1cc(O)c(O)c(C=O)c1CCC(=O)O` [Example 15, 3-(2,6-DIFORMYL-3,4-DIHYDROXYPHENYL)PROPANOIC ACID], the half-maximal inhibitory concentration (IC50) at S-COMT enzyme stood at 60 nM.

Regarding `O=Cc1cc(O)c(O)c(C=O)c1CCCCC(=O)O` [Example 14, 5-(2.6-DIFORMYL-3,4-DIHYDROXYPHENYL)PENTANOIC ACID], the midpoint of inhibition on S-COMT enzyme, the IC50, lay at 30 nM.

Turning to `CC(=O)C(=Cc1cc(O)c(O)c([N+](=O)[O-])c1)C(C)=O` [Comparison compound 2, 2[(3,4-dihydroxy-5-nitrophenyl)methylene]-2,4-pentanedione, reference compound], in data set [1] (plasma), the concentration at 0.5 h amounted to 530 ng/mL and the concentration at 5 h was less than 25 ng/mL. Take `O=C(O)CCc1c([N+](=O)[O-])cc(O)c(O)c1[N+](=O)[O-]` [Example 11, 3-(3,4-DIHYDROXY-2,6-DINITROPHENYL)-PROPANOIC ACID]: 30 nM corresponded to half-maximal inhibition against S-COMT enzyme (IC50). Besides, in data set [1] (in vivo), the concentration at 0.5 h turned out to be 2100 ng/mL and the concentration at 5 h was 490 ng/mL.
